# Results reported in US20110053773A1, “METHODS OF IMPROVING NUTRITIONAL VALUE OF PLANTS” (UNIVERSITY OF TENNESSEE RESEARCH FOUNDATION, priority 2009, published 2011).
# Legend:
# Format in all cases: in vivo
# kale 'Red Russian' = experiment: Content analysis of kale: protein, amino acids, fiber, fatty acids, minerals (Example 4, Tables 12-14); conditions: 28 DA-A
# Description: (§1) Greenhouse and laboratory studies were conducted to ascertain the tolerance and nutritional quality differences following postemergence applications of the insecticide chlorpyrifos, the fungicide chlorothalonil, the PGRs mepiquat-chloride and paclobutrazol, and the safeners napthalic anhydride and isoxadifen-ethyl on kale ‘Red Russian’ and basil ‘Genovese’. Visual injury was rated based on general phytotoxicity, chlorosis, and visual stunting and each measurement was based on a percent scale from 0 to 100 where 0 equals no visual response and 100 equals complete plant death. Kale and basil were both harvested approximately 4 weeks after treatments and plants were pooled over replicates for content analysis of crude protein, crude amino acid content, acid detergent fiber, neutral detergent fiber, total fatty acids, and/or key mineral content (including Na, Ca, P, Mg, K, Fe, Mn, Zn, and Cu). In addition, the amounts of key individual amino acids (aspartic acid, threonine, glutamic acid, proline, glycine, cysteine, valine, leucine, isoleucine, methionine, and lysine) and composite classifications of fatty acid (saturated fatty acids, monounsaturated fatty acids, polyunsaturated fatty acids) were also analyzed from these sub-samples for kale (Tables 10-14).
# basil 'Genovese' = experiment: Content analysis of basil: protein, minerals (Example 4, Tables 10-11); conditions: 28 DA-A
# How it was run: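 Postemergence greenhouse applications of chlorpyrifos, chlorothalonil, mepiquat-chloride, paclobutrazol, napthalic anhydride or isoxadifen-ethyl. Injury rated visually for phytotoxicity, chlorosis and stunting on a 0–100% scale (0 = no response, 100 = plant death). Plants harvested ~4 weeks after treatment, pooled over replicates for nutrient content analysis.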
# basil ‘Genovese’ = experiment: Yield, fresh weight of basil after insecticide, fungicide, PGRs and safeners (Example 4, Table 10); conditions: DA-A, check 31.8
# Description: as §1
# [1] = rates g ai/ha: chlropyrifos 1120, chlorothalonil 2630, paclobutrazol 3.23, mepiquat-chloride 12.3, + NIS 0.25 % v/v
# [2] = rates g ai/ha: chlropyrifos 3370, chlorothalonil 7900, paclobutrazol 9.7, mepiquat-chloride 37, + NIS 0.25 % v/v
# [3] = second-listed rate g ai/ha: chlropyrifos ###, chlorothalonil ###, paclobutrazol 9.7, mepiquat-chloride 37, + NIS 0.3 % v/v
# [4] = rates g ai/ha: chlroprifos 3370, chlorothalonil 7900, paclobutrazol 9.7, mepiquat-chloride 37, Isoxadifen 16, Napthalic anhydride 527, + NIS 0.25 % v/v
# [5] = rates g ai/ha: chlropyrifos 1120, chlorothalonil 2630, paclobutrazol 3.23, mepiquat-chloride 12.3, Isoxadifen 8, Napthalic anhydride 264, + NIS 0.25 % v/v
smiles,measurement,setting,value
CC(C)(C)[C@@H](O)[C@@H](Cc1ccc(Cl)cc1)n1cncn1 (racemic) [paclobutrazol],"NDF, Percent Increase Over the Untreated Check (on a % dry matter basis)",kale 'Red Russian'; [1],−3 % check
same,"Phosphorous, Percent Increase Over the Untreated Check (on a % dry matter basis)",kale 'Red Russian'; [1],6 % check
same,"Potassium, Percent Increase Over the Untreated Check (on a % dry matter basis)",kale 'Red Russian'; [1],3 % check
same,"Sodium, Percent Increase Over the Untreated Check (on a % dry matter basis)",kale 'Red Russian'; [1],−1 % check
same,"Zinc, Percent Increase Over the Untreated Check (on a % dry matter basis)",kale 'Red Russian'; [1],11 % check
same,"ADF, Percent Increase Over the Untreated Check (on a % dry matter basis)",kale 'Red Russian'; [2],−1 % check
same,"Calcium, Percent Increase Over the Untreated Check (on a % dry matter basis)",kale 'Red Russian'; [2],22 % check
same,"Copper, Percent Increase Over the Untreated Check (on a % dry matter basis)",kale 'Red Russian'; [2],28 % check
same,"Iron, Percent Increase Over the Untreated Check (on a % dry matter basis)",kale 'Red Russian'; [2],−5 % check
same,"Magnesium, Percent Increase Over the Untreated Check (on a % dry matter basis)",kale 'Red Russian'; [2],11 % check
same,"Manganese, Percent Increase Over the Untreated Check (on a % dry matter basis)",kale 'Red Russian'; [2],20 % check
same,"NDF, Percent Increase Over the Untreated Check (on a % dry matter basis)",kale 'Red Russian'; [2],−8 % check
same,"Phosphorous, Percent Increase Over the Untreated Check (on a % dry matter basis)",kale 'Red Russian'; [2],12 % check
same,"Potassium, Percent Increase Over the Untreated Check (on a % dry matter basis)",kale 'Red Russian'; [2],15 % check
same,"Sodium, Percent Increase Over the Untreated Check (on a % dry matter basis)",kale 'Red Russian'; [2],11 % check
same,"Zinc, Percent Increase Over the Untreated Check (on a % dry matter basis)",kale 'Red Russian'; [2],13 % check
same,"Alanine, Percent Increase over the Untreated Check (on a % dry matter basis)",kale 'Red Russian'; [3],4 % check
same,"Aspartic acid, Percent Increase over the Untreated Check (on a % dry matter basis)",kale 'Red Russian'; [3],12 % check
same,"Cysteine, Percent Increase over the Untreated Check (on a % dry matter basis)",kale 'Red Russian'; [3],6 % check
same,"Glutamic acid, Percent Increase over the Untreated Check (on a % dry matter basis)",kale 'Red Russian'; [3],16 % check
same,"Glycine, Percent Increase over the Untreated Check (on a % dry matter basis)",kale 'Red Russian'; [3],3 % check
same,"Iso-leucine, Percent Increase over the Untreated Check (on a % dry matter basis)",kale 'Red Russian'; [3],6 % check
same,"Leucine, Percent Increase over the Untreated Check (on a % dry matter basis)",kale 'Red Russian'; [3],5 % check
same,"Lysine, Percent Increase over the Untreated Check (on a % dry matter basis)",kale 'Red Russian'; [3],14 % check
same,"Methionine, Percent Increase over the Untreated Check (on a % dry matter basis)",kale 'Red Russian'; [3],2 % check
same,"Proline, Percent Increase over the Untreated Check (on a % dry matter basis)",kale 'Red Russian'; [3],7 % check
same,"Threonine, Percent Increase over the Untreated Check (on a % dry matter basis)",kale 'Red Russian'; [3],4 % check
same,"Total Amino acids, Percent Increase over the Untreated Check (on a % dry matter basis)",kale 'Red Russian'; [3],9 % check
same,"Total Protein, Percent Increase over the Untreated Check (on a % dry matter basis)",kale 'Red Russian'; [3],13 % check
same,"Valine, Percent Increase over the Untreated Check (on a % dry matter basis)",kale 'Red Russian'; [3],6 % check
same,"ADF, Percent Increase Over the Untreated Check (on a % dry matter basis)",basil 'Genovese'; [4],−12 % check
same,"Calcium, Percent Increase Over the Untreated Check (on a % dry matter basis)",basil 'Genovese'; [4],−18 % check
same,"Copper, Percent Increase Over the Untreated Check (on a % dry matter basis)",basil 'Genovese'; [4],−25 % check
same,"Iron, Percent Increase Over the Untreated Check (on a % dry matter basis)",basil 'Genovese'; [4],4 % check
same,"Magnesium, Percent Increase Over the Untreated Check (on a % dry matter basis)",basil 'Genovese'; [4],−9 % check
same,"Manganese, Percent Increase Over the Untreated Check (on a % dry matter basis)",basil 'Genovese'; [4],−12 % check
same,"NDF, Percent Increase Over the Untreated Check (on a % dry matter basis)",basil 'Genovese'; [4],−8 % check
same,"Phosphorous, Percent Increase Over the Untreated Check (on a % dry matter basis)",basil 'Genovese'; [4],0 % check
same,"Potassium, Percent Increase Over the Untreated Check (on a % dry matter basis)",basil 'Genovese'; [4],−5 % check
same,"Protein, Percent Increase Over the Untreated Check (on a % dry matter basis)",basil 'Genovese'; [4],−9 % check
same,"Sodium, Percent Increase Over the Untreated Check (on a % dry matter basis)",basil 'Genovese'; [4],−17 % check
same,"Soluble protein, Percent Increase Over the Untreated Check (on a % dry matter basis)",basil 'Genovese'; [4],12 % check
same,"Zinc, Percent Increase Over the Untreated Check (on a % dry matter basis)",basil 'Genovese'; [4],−8 % check
same,"ADF, Percent Increase Over the Untreated Check (on a % dry matter basis)",basil 'Genovese'; [5],7 % check
same,"Calcium, Percent Increase Over the Untreated Check (on a % dry matter basis)",basil 'Genovese'; [5],−2 % check
same,"Copper, Percent Increase Over the Untreated Check (on a % dry matter basis)",basil 'Genovese'; [5],8 % check
same,"Iron, Percent Increase Over the Untreated Check (on a % dry matter basis)",basil 'Genovese'; [5],63 % check
same,"Magnesium, Percent Increase Over the Untreated Check (on a % dry matter basis)",basil 'Genovese'; [5],−8 % check
same,"Manganese, Percent Increase Over the Untreated Check (on a % dry matter basis)",basil 'Genovese'; [5],26 % check
same,"NDF, Percent Increase Over the Untreated Check (on a % dry matter basis)",basil 'Genovese'; [5],7 % check
same,"Phosphorous, Percent Increase Over the Untreated Check (on a % dry matter basis)",basil 'Genovese'; [5],2 % check
same,"Potassium, Percent Increase Over the Untreated Check (on a % dry matter basis)",basil 'Genovese'; [5],−1 % check
same,"Protein, Percent Increase Over the Untreated Check (on a % dry matter basis)",basil 'Genovese'; [5],6 % check
same,"Sodium, Percent Increase Over the Untreated Check (on a % dry matter basis)",basil 'Genovese'; [5],−25 % check
same,"Soluble protein, Percent Increase Over the Untreated Check (on a % dry matter basis)",basil 'Genovese'; [5],50 % check
same,"Zinc, Percent Increase Over the Untreated Check (on a % dry matter basis)",basil 'Genovese'; [5],28 % check
same,Yield Fresh weight,basil ‘Genovese’; [5],22.4 grams
same,Yield Fresh weight,"basil ‘Genovese’; rates g ai/ha: chlropyrifos 3370, chlorothalonil 7900, paclobutrazol 9.7, mepiquat-chloride 37, Isoxadifen 16, Napthalic anhydride 527, + NIS 0.25 % v/v",24.4 grams
